Here are results for two compounds from publication PMC12444472, “BCI inhibits MKP3 by targeting the kinase-binding domain and disrupting ERK2 interaction” (The Journal of Biological Chemistry, 2025).

Bounds are passed on as bounds.

One assay concerns MKP3. The following applies: basal, without ERK2; cited from earlier work.
For assay [1], the target named is T1, Full-length human MKP3, MKP3(1-381) (human) (UniProt Q16828).
T1 sequence: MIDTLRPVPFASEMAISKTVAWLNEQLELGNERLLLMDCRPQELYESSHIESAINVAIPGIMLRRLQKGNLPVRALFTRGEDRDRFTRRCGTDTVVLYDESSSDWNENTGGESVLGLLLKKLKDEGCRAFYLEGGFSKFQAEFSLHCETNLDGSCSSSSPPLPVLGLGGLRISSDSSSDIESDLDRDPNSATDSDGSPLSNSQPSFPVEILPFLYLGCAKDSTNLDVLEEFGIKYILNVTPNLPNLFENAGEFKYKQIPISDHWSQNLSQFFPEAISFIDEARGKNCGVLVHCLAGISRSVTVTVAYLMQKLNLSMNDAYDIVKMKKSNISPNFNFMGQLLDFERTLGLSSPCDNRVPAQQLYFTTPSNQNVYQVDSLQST

On to `O=C1C(SCCO)=C(SCCO)C(=O)c2ccccc21` [NSC95397], for which, in the assay with MKP3, the “effect on MKP3's basal activity toward OMFP” value is recorded as “inhibited”.
In the case of “Phosphorylated ERK2 (bis-pERK2, phosphorylated at T183 and Y185) (from UniProt P63085 1-358) (enzyme)”, the time of pERK2 dephosphorylation by MKP3^FL with BCI at a concentration 50 times that of pERK2 in assay [1] was above 20 fold.
